The data set can be described thus: pH of 0.005 molar solution in 15% methanol/85% water. The data set is classed as physicochemical. An excerpt: TABLE I also includes vapor pressure (VP) and pKa values for the various backside stabilizers.

The structures appear in SMILES notation.

As to `C1CNCCN1` [AB-1], the pH is listed as 10.4.

`C1CN2CCN1CC2` [AB-2] displayed a pH of 9.8.

Take `CN(C)C(=N)N(C)C` [AB-3]: the pH was found to be 11.8.

Take `OCCN(CCO)CCO` [AB-5]: the pH worked out at 9.1.

In the case of `C1CCC2=NCCCN2CC1` [AB-6, 1,8-diazabicyclo[5.4.0]undec-7-ene], the pH is 11.8.

The molecule `c1ccc(Nc2ccccn2)nc1` [AB-7] gave a pH of 8.5.

The molecule `N=C(Nc1ccccc1)Nc1ccccc1` [AB-8] gave a pH of 10.6.

On to `c1ccc(CN(Cc2ccccc2)Cc2ccccc2)cc1` [AB-9], for which the pH is 8.6.

The values are drawn from patent US7094524B2, “Thermally development imaging materials having backside stabilizers” (Eastman Kodak Company, priority 2003, dated 2006).
